Test results as given in publication PMC7582725, “Suppression of hTAS2R16 Signaling by Umami Substances” (International Journal of Molecular Sciences, 2020).
Where a chain is given by its changes, count along the chain named. “And” between values parts separate entries of the source, which are not always exact repeats. Identical values can stand only once. Like-named read-outs stand apart in the source and are kept apart here. Where a SMILES comes first, the peptide text is derived from it.

How the values were obtained:
hTAS2R16 [1] = target: T1, hTAS2R16 (Homo sapiens, UniProt Q9NYV7); assay: Cellular Ca2+ response, cell-based assay (Calcium-4, FlexStation III) in HEK293T cells co-expressing wild-type hTAS2R16 and G16αgust44
T1 construct: expressed in transfected cells; host or cells: HEK293T
T1 sequence (Q9NYV7 1-291): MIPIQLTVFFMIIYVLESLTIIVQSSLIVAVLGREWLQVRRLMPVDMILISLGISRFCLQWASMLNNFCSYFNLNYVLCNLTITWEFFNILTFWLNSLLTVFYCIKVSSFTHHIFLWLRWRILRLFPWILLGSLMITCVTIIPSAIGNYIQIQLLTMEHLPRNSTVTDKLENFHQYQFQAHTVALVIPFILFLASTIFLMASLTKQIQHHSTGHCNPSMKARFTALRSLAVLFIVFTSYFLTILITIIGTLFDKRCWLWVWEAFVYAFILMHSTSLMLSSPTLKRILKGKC
Description: (§1) HEK293T cells were purchased from American Type Culture Collection (ATCC; Manassas, VA, USA) and cultured as described previously. The plasmids hTAS2R16 and G16αgust44 were constructed as described previously. G16αgust44 and hTAS2R16 were cloned into a cytomegalovirus promoter-based vector and expressed constitutively. Point mutants of N96T and P44T on hTAS2R16 clone and DNA sequencings were performed by Macrogen (Geumcheon-gu, Seoul, Korea). The hTAS2R16 or point mutant expression plasmid was co-transfected with G16αgust44 expression plasmid (4:1) into HEK293T cells using Lipofectamine 2000 (Invitrogen, Carlsbad, CA, USA).
(§2) The umami substances-induced changes in the cytosolic Ca^2+ concentration were measured using a FlexStation III microplate reader (Molecular Devices, Sunnyvale, CA, USA). HEK293T cells transfected with hTAS2R16 were seeded onto 96-well black-wall CellBind surface plates (Corning, NY, USA) for 18–24 h before use. […] The cells were incubated in the dark for 30 min at 37 °C, and then for 15 min at 27 °C in assay buffer consisting of Calcium-4 (FLIPR Calcium 4 Assay Kit, Molecular Devices) and probenecid or the umami compounds. Following treatment, the fluorescence intensity (excitation, 486 nm; emission, 525 nm) of the cell was measured. The relative changes in cell Ca^2+ were plotted as ΔF/F0 on the y-axis, where ΔF is the change in Calcium-4 fluorescence intensity at each time point and F0 is the fluorescence intensity before treatment. The relative response induced by 10 mM salicin was assigned a value of 100.

hTAS2R16 N96T = target: T2, hTAS2R16 N96T (Homo sapiens, UniProt Q9NYV7, N96T); assay: Cellular Ca2+ response, cell-based assay in HEK293T cells expressing probenecid-insensitive mutant hTAS2R16 N96T
T2 construct: expressed in transfected cells; host or cells: HEK293T
T2 sequence (Q9NYV7 1-291 N96T): T1 sequence (Q9NYV7 1-291) with N96T
Description: as §1, §2

hTAS2R16 P44T = target: T3, hTAS2R16 P44T (Homo sapiens, UniProt Q9NYV7, P44T); assay: Cellular Ca2+ response, cell-based assay in HEK293T cells expressing probenecid-insensitive mutant hTAS2R16 P44T
T3 construct: expressed in transfected cells; host or cells: HEK293T
T3 sequence (Q9NYV7 1-291 P44T): T1 sequence (Q9NYV7 1-291) with P44T
Description: as §1, §2

hTAS2R16 [2] = target: T1, hTAS2R16; assay: Ca2+ response of hTAS2R16-expressing HEK293T cells to bitter ligands in absence and presence of umami substances (Figure 1; fura-2 F340/F380 imaging / cell-based assay); conditions: for inhibition of Ca2+ response to arbutin: 5 mM arbutin; for inhibition of Ca2+ response to arbutin / inhibition of Ca2+ response to phenyl β-D-glucopyranoside: MSG 80 mM, IMP 20 mM, L-theanine 80 mM; for inhibition of Ca2+ response to arbutin / reduction of intracellular Ca2+ influx evoked by salicin / inhibition of Ca2+ response to phenyl β-D-glucopyranoside: Glu-Glu 6 mM, Gly-Gly 6 mM; for reduction of intracellular Ca2+ influx evoked by salicin: 10 mM salicin, MSG 10 and 80 mM, IMP 10 and 20 mM, L-theanine 10 and 80 mM, probenecid 0.1 and 0.3 mM; for Ca2+ response of cells expressing TAS2R16 on stimulation with ligand: Figure 1D,E
Description: We first verified if non-peptide umami substances affect the downstream signaling mechanism, such as changes in intracellular Ca^2+ of the human bitter taste receptor. […] The increase in fluorescence intensity ratio (F340/F380) with 10 mM salicin was expressed as 100. […] In addition to salicin, hTAS2R16 also recognizes bitter sugars such as phenyl β-D-glucopyranoside and arbutin, a glycosylated hydroquinone extracted from the bearberry plant in the genus Arctostaphylos.
(A) Chemical structures of tested compounds. Summarized data (B) and representative traces (C) showing responses of HEK293T cells co-expressing hTAS2R16 and Gα16gust44 to 10 mM salicin in the absence and presence of umami substances in a cell-based assay. (D,E) Representative ratiometric images of fura-2-loaded hTAS2R16-expressing cells in response to the other ligands, 5 mM arbutin (D) or phenyl β-D-glucopyranoside (E), in the presence of umami substances. The data were normalized as percentages to the maximal signal obtained with the ligands. The color scale indicates the F340/F380 ratio. Scale bar: 11.04 μm. Data are presented as means ± standard error of the mean (SEM) of at least three separate experiments. * p < 0.05, ** p < 0.01, and *** p < 0.001 vs. the 0 mM sample group by Student’s t-test.
as §2, with “Following treatment, the fluorescence intensity (excitation, 486 nm; emission, 525 nm) of the cell was measured.” left out
Cells were seeded onto 96-well black-wall imaging plates (BD Falcon Labware) for 18–26 h prior to their use in an experiment. […] The cells were rinsed with the buffer, incubated in probenecid or sample for 30 min, and then treated with solution containing the ligand. The Fura-2AM-induced fluorescence intensity (excitation at 340 and 380 nm) was measured at emission wavelength of 510 nm using a computer-controlled filter changer (Lambda DG4; Sutter, San Rafael, CA, USA), an Andor Luca CCD camera (Andor Technology, Belfast, UK), and an inverted fluorescence microscope (IX-71; Olympus, Tokyo, Japan). Images were obtained at 3-s intervals and analyzed using MetaFluor software (Molecular Devices, Sunnyvale, CA, USA).

umami taste [3] = assay: Human sensory evaluation of umami taste (literature); type: in vivo; conditions: L-theanine vs MSG; from cited thresholds
umami taste [4] = conditions: cited from earlier work
[5] = IC50 in the presence of 10 mM salicin, Table 2, + IMP 0 mM, means ± SEM
[6] = IC50 of umami substances in the presence of 10 mM salicin, Figure 2B, pretreatment with sample, fixed 10 mM salicin, means ± SEM
[7] = Table 3, pretreatment with sample 80 mM

Compound: N[C@@H](CCC(=O)O)C(=O)N[C@@H](CCC(=O)O)C(=O)O [Glu-Glu] (H-Glu-Glu-OH)
- IC50 (hTAS2R16 [1]; [5]): 7250 ± 20 µM
- IC50 (hTAS2R16 [1]; [6]): 8620 ± 30 µM

Compound: CCNC(=O)CC[C@H](N)C(=O)O [L-Theanine, γ-glutamylethylamide]
- synergistic effect with IMP on suppression of salicin response (hTAS2R16 [1]; 10 mM salicin, graded IMP below or at 10 mM): produce similar synergistic effects with IMP
- IC50 (hTAS2R16 [1]; [5]): 77330 ± 50 µM
- IC50 (hTAS2R16 [1]; [6]): 62000 µM and 61700 µM
- Maximal Response of salicin (hTAS2R16 [1]; Table 1, pretreatment with sample 10 mM): 0.53 ΔF/F0
- Maximal Response of salicin (hTAS2R16 [1]; Table 1, pretreatment with sample 30 mM): 0.50 ΔF/F0
- Maximal Response of salicin (hTAS2R16 [1]; Table 1, pretreatment with sample 80 mM): 0.43 ΔF/F0
- Maximal Response of salicin (hTAS2R16 [1]; Table 1, pretreatment with sample 100 mM): 0.31 ΔF/F0
- Maximal Response of salicin, WT (hTAS2R16 [1]; [7]): 0.43 ΔF/F0
- mechanism of antagonism at hTAS2R16 (hTAS2R16 [1]; from salicin concentration–response curves at graded antagonist concentrations): partial insurmountable antagonists
- attenuation of salicin response by pretreatment, WT receptor (hTAS2R16 [1]; salicin 0.003–30 mM, probenecid 0.3 mM, L-theanine 80 mM): significantly attenuated
- Maximal Response of salicin, N96T (hTAS2R16 N96T; [7]): 0.66 ΔF/F0
- attenuation of salicin response by pretreatment, N96T mutant (hTAS2R16 N96T; salicin 0.003–30 mM, probenecid 0.3 mM, Glu-Glu 6 mM, L-theanine 80 mM): not in cells expressing the two N96T and P44T mutant receptors
- Maximal Response of salicin, P44T (hTAS2R16 P44T; [7]): 0.56 ΔF/F0
- attenuation of salicin response by pretreatment, P44T mutant (hTAS2R16 P44T; salicin 0.003–30 mM, probenecid 0.3 mM, MSG 80 mM, L-theanine 80 mM): not in cells expressing the two N96T and P44T mutant receptors
- inhibition of Ca2+ response to arbutin (hTAS2R16 [2]): significantly inhibited
- reduction of intracellular Ca2+ influx evoked by salicin (hTAS2R16 [2]): concentration-dependent reduction
- inhibition of Ca2+ response to phenyl β-D-glucopyranoside (hTAS2R16 [2]): significantly inhibited
- detection threshold, times lower than that of MSG (umami taste [3]): roughly 36 times
- detection threshold (umami taste [4]): 25 mM

Compound: OCc1ccccc1O[C@@H]1O[C@H](CO)[C@@H](O)[C@H](O)[C@H]1O [Salicin]
- Maximal Response of salicin (hTAS2R16 [1]; Table 1, salicin 0–30 mM, sample 0 mM): 0.51 ΔF/F0 and 0.54 ΔF/F0 and 0.56 ΔF/F0
- EC50 (hTAS2R16 [1]; Table 1, salicin 0–30 mM, sample 0 mM, means ± SEM, read-out: EC50 of salicin): 1.04 mM (2×) and 920 µM and 890 µM and 900 µM
- Maximal Response of salicin, WT (hTAS2R16 [1]; Table 3, sample 0 mM): 0.54 ΔF/F0 and 0.56 ΔF/F0 and 0.51 ΔF/F0
- EC50 (hTAS2R16 [1]; Table 3, sample 0 mM, read-out: EC50 of salicin, WT): 960 µM and 900 µM and 1040 µM and 1070 µM
- intracellular Ca2+ response induced by ligand, WT receptor (hTAS2R16 [1]; salicin 0.003–30 mM): induced intracellular Ca^2+ response
- Maximal Response of salicin, N96T (hTAS2R16 N96T; Table 3, sample 0 mM): 0.66 ΔF/F0 and 0.63 ΔF/F0 and 0.68 ΔF/F0 and 0.61 ΔF/F0
- EC50 (hTAS2R16 N96T; Table 3, sample 0 mM, read-out: EC50 of salicin, N96T): 200 µM (2×) and 230 µM and 250 µM and 180 µM
- intracellular Ca2+ response induced by ligand, N96T mutant (hTAS2R16 N96T; salicin 0.003–30 mM): induced intracellular Ca^2+ response
- Maximal Response of salicin, P44T (hTAS2R16 P44T; Table 3, sample 0 mM): 0.61 ΔF/F0 and 0.59 ΔF/F0 and 0.56 ΔF/F0 and 0.62 ΔF/F0
- EC50 (hTAS2R16 P44T; Table 3, sample 0 mM, read-out: EC50 of salicin, P44T): 690 µM and 750 µM and 640 µM and 620 µM and 680 µM
- intracellular Ca2+ response induced by ligand, P44T mutant (hTAS2R16 P44T; salicin 0.003–30 mM): induced intracellular Ca^2+ response

Compound: OC[C@H]1O[C@@H](Oc2ccc(O)cc2)[C@H](O)[C@@H](O)[C@@H]1O [arbutin]
- Ca2+ response of cells expressing TAS2R16 on stimulation with ligand (hTAS2R16 [2]): increase in Ca^2+

Compound: OC[C@H]1O[C@@H](Oc2ccccc2)[C@H](O)[C@@H](O)[C@@H]1O [phenyl β-D-glucopyranoside]
- Ca2+ response of cells expressing TAS2R16 on stimulation with ligand (hTAS2R16 [2]): increase in Ca^2+

Compound: Gly-Gly
- inhibition of Ca2+ response to arbutin (hTAS2R16 [2]): not
- reduction of intracellular Ca2+ influx evoked by salicin (hTAS2R16 [2]): not
- inhibition of Ca2+ response to phenyl β-D-glucopyranoside (hTAS2R16 [2]): not
